These are literature values, as cited in patent US10526439B2, “High dielectric breakdown strength resins” (priority 2017, dated 2020).

The conditions of the series: monomer property, Table IA; species and route not given.

Take `C=Cc1ccc(C(C)(C)C)cc1` [Monomer 1, 4-tert butyl styrene]: the “Toxicity LD50” value was greater than 2000 mg/kg.

Take `C=Cc1ccccc1` [STYRENE, styrene]: the “Toxicity LD50” value is greater than 2000 mg/kg.
